Data as given in patent US6160004A, “C-10 carbon-substituted artemisinin-like trioxane compounds having antimalarial, antiproliferative and antitumor activities” (priority 1998, dated 2000).

Tests used:
[1] = cited from earlier work
[2] = rat liver microsomes; cited from earlier work
PE cells = assay: Viability by trypan blue exclusion; type: cell-based, murine (SENCAR mice); conditions: 96 hours
CCRF-CEM = assay: cells; type: cell-based; conditions: Homo sapiens, leukemia, 48 h, read-out: Log10 TGI
HL-60(TB) = assay: cells; type: cell-based; conditions: Homo sapiens, HL-60, 48 h, read-out: Log10 TGI
K-562 = assay: cells; type: cell-based; conditions: Homo sapiens, K562; K-562, leukemia, 48 h; read-out: Log10 TGI (converted)
RPMI-8226 = assay: NCI 60 cell line panel screening assay (SRB), RPMI-8226; type: cell-based; conditions: Homo sapiens, RPMI-8226, leukemia, 48 h
SR = assay: cells; type: cell-based; conditions: Homo sapiens, leukemia, 48 h, read-out: Log10 TGI
HOP-62 = assay: cells; type: cell-based; conditions: Homo sapiens; HOP-62, non-small cell lung cancer, 48 h; read-out: Log10 TGI (converted)
NCI-H460 = assay: cells; type: cell-based; conditions: Homo sapiens, NCI-H460, non-small cell lung cancer, 48 h
NCI-H522 = assay: cells; type: cell-based; conditions: Homo sapiens; NCI-H522, non-small cell lung cancer, 48 h; read-out: Log10 TGI (converted)
HCT-116 = assay: cells; type: cell-based; conditions: Homo sapiens, HCT-116, 48 h
HCT-15 = assay: cells; type: cell-based; conditions: Homo sapiens, HCT-15, colon cancer, 48 h
HT29 = assay: cells; type: cell-based; conditions: Homo sapiens, HT-29; HT29, colon cancer, 48 h; read-out: Log10 GI50 (converted)
KM12 = assay: cells; type: cell-based; conditions: Homo sapiens; KM12, colon cancer, 48 h; read-out: Log10 TGI
SW-620 = assay: NCI 60 cell line panel screening assay (SRB), SW-620; type: cell-based; conditions: Homo sapiens; SW-620, colon cancer, 48 h; read-out: Log10 TGI
SNB-19 = assay: cells; type: cell-based; conditions: Homo sapiens; SNB-19, CNS cancer, 48 h; read-out: Log10 TGI
U251 = assay: cells; type: cell-based; conditions: Homo sapiens, U-251; U251, CNS cancer, 48 h; read-out: Log10 TGI (converted)
LOX IMVI = assay: cells; type: cell-based; conditions: Homo sapiens, melanoma, 48 h, read-out: Log10 TGI (converted)
MALME-3M = assay: cells; type: cell-based; conditions: Homo sapiens, Malme-3M, 48 h, read-out: Log10 TGI
UACC-257 = assay: cells; type: cell-based; conditions: Homo sapiens, UACC-257, 48 h; read-out: Log10 TGI (converted)
IGROVI = assay: NCI 60 cell line panel screening assay (SRB), IGROVI; type: cell-based; conditions: 48 h, read-out: Log10 TGI
OVCAR-3 = assay: cells; type: cell-based; conditions: Homo sapiens; OVCAR-3, ovarian cancer, 48 h; read-out: Log10 TGI (converted)
OVCAR-4 = assay: cells; type: cell-based; conditions: Homo sapiens, OVCAR-4, 48 h
OVCAR-5 = assay: cells; type: cell-based; conditions: Homo sapiens; OVCAR-5, ovarian cancer, 48 h; read-out: Log10 TGI (converted)
OVCAR-8 = assay: cells; type: cell-based; conditions: Homo sapiens; OVCAR-8, ovarian cancer, 48 h; read-out: Log10 GI50 (converted)
786-0 = assay: cells; type: cell-based; conditions: Homo sapiens; 786-0, renal cancer, 48 h; read-out: Log10 TGI
SN12C = assay: NCI 60 cell line panel screening assay (SRB), SN12C; type: cell-based; conditions: Homo sapiens, 48 h, read-out: Log10 TGI
PC-3 = assay: cells; type: cell-based; conditions: Homo sapiens; PC-3, prostate cancer, 48 h; read-out: Log10 TGI
DU-145 = assay: cells; type: cell-based; conditions: Homo sapiens, DU-145, 48 h; read-out: Log10 TGI
MCF7/ADR-RES = assay: cells; type: cell-based; conditions: Homo sapiens; MCF7/ADR-RES, breast cancer, 48 h; read-out: Log10 TGI
MDA-MB231/ATCC = assay: cells; type: cell-based; conditions: Homo sapiens, MDA-MB-231, breast cancer, 48 h, read-out: Log10 TGI (converted)
MDA-MB435 = assay: NCI 60 cell line panel screening assay (SRB), MDA-MB435; type: cell-based; conditions: Homo sapiens, MDA-MB-435; printed MDA-MBA35, breast cancer, 48 h; read-out: Log10 GI50 (converted)
MDA-N = assay: NCI 60 cell line panel screening assay (SRB), MDA-N; type: cell-based; conditions: Homo sapiens, breast cancer, 48 h, read-out: Log10 GI50 (converted)
BT-549 = assay: cells; type: cell-based; conditions: Homo sapiens, BT-549, breast cancer, 48 h
MOLT-4 [3] = conditions: MOLT-4, FIG. 6
MOLT-4 [4] = assay: cells; conditions: Homo sapiens, MOLT-4, 48 h
NCI-H322M = assay: cells; conditions: Homo sapiens, 48 h, read-out: Log10 TGI
60 cell line panel = assay: NCI 60 cell line panel, whole panel; conditions: panel
M14 = assay: NCI 60 cell line panel screening assay (SRB), M14; conditions: Homo sapiens, M14, 48 h, read-out: Log10 TGI
T-47D = assay: NCI 60 cell line panel screening assay (SRB), T-47D; conditions: Homo sapiens, T47D, 48 h, read-out: Log10 GI50 (converted)
[5] = read-out: Log10 GI50 (converted)
[6] = read-out: Log10 TGI (converted)

For `C[C@@H]1CC[C@H]2[C@@H](C)C(O)O[C@@H]3O[C@@]4(C)CC[C@@H]1[C@]32OO4` (some centres unmarked) [dihydroartemisinin], the half-life in plasma [1] is listed as “less than two”.
In the case of `CCO[C@H]1O[C@@H]2O[C@@]3(C)CC[C@H]4[C@H](C)CC[C@@H]([C@H]1C)[C@@]24OO3` [arteether], the conversion into dihydroartemisinin [2] is given as “rapidly converted”.
In the case of `C=C1/C(=C\C=C2/CCC[C@]3(C)[C@@H]([C@H](C)CCCC(C)(C)O)CC[C@@H]23)C[C@@H](O)C[C@@H]1O` [calcitriol, 1α, 25-dihydroxyvitamin D3], the “viability of treated cells” value (PE cells) is reported as “identical to control cells”.
For `CC(=O)O[C@H]1C(=O)[C@@]2(C)[C@H]([C@H](OC(=O)c3ccccc3)[C@]3(O)C[C@H](OC(=O)[C@H](O)[C@@H](NC(=O)c4ccccc4)c4ccccc4)C(C)=C1C3(C)C)[C@]1(OC(C)=O)CO[C@@H]1C[C@@H]2O` [Paclitaxel, reference compound], the IC (TGI) (CCRF-CEM) was > 100 µM, the IC (TGI) (HL-60(TB)) was > 29.5 µM and the IC (TGI) (K-562) was > 100 µM. For the same compound, the GI50 (RPMI-8226; [5]) was < 0.1 pM, the IC (TGI) (RPMI-8226; read-out: Log10 TGI) was > 100 µM and the IC (TGI) (SR) was > 100 µM. For the same compound, the IC (TGI) (HOP-62) was 15.8 µM, the GI50 (NCI-H460; [5]) was < 0.1 pM and the IC (TGI) (NCI-H460; [6]) was 12 µM. For the same compound, the IC (TGI) (NCI-H522) was 6.31 pM, the GI50 (HCT-116; [5]) was < 0.1 pM and the IC (TGI) (HCT-116; [6]) was 15.1 µM. The GI50 (HCT-15; [5]) was 427 nM, the IC (TGI) (HCT-15; read-out: Log10 TGI) was > 100 µM and the GI50 (HT29) was < 0.1 pM. The IC (TGI) (KM12) was 43.7 µM, the IC (TGI) (SW-620) was > 100 µM and the IC (TGI) (SNB-19) was > 100 µM. It also gave an IC (TGI) (U251) of 47.9 µM, an IC (TGI) (LOX IMVI) of 22.4 µM and an IC (TGI) (MALME-3M) of 34.7 µM. It also gave an IC (TGI) (UACC-257) of 30.2 µM, an IC (TGI) (IGROVI) of 64.6 µM and an IC (TGI) (OVCAR-3) of 28.2 µM. The GI50 (OVCAR-4; [5]) was 10 µM, the IC (TGI) (OVCAR-4; read-out: Log10 TGI) was 64.6 µM and the IC (TGI) (OVCAR-5) was 12 µM. The GI50 (OVCAR-8) was 0.0178 nM, the IC (TGI) (786-0) was > 100 µM and the IC (TGI) (SN12C) was 51.3 µM. For the same compound, the IC (TGI) (PC-3) was > 100 µM, the IC (TGI) (DU-145) was > 100 µM and the IC (TGI) (MCF7/ADR-RES) was > 100 µM. For the same compound, the IC (TGI) (MDA-MB231/ATCC) was 14.5 µM, the GI50 (MDA-MB435) was < 0.1 pM and the GI50 (MDA-N) was < 0.1 pM. The GI50 (BT-549; [5]) was 0.49 nM, the IC (TGI) (BT-549; [6]) was 0.479 µM and the “concentration for cytostasis (PG 0)” value (MOLT-4 [3]) was “greater than 10^-4 M”. The CC50 (MOLT-4 [4]; read-out: Log10 LC50 (converted)) was > 100 µM, the IC (TGI) (MOLT-4 [4]; read-out: Log10 TGI) was > 100 µM and the IC (TGI) (NCI-H322M) was 34.7 µM. The “Delta of Log10 LC50” value (60 cell line panel) was -4.06, the “Delta of Log10 TGI” value (60 cell line panel) was -4.54 and the “Range of Log10 TGI” value (60 cell line panel) was 7.20. For the same compound, the IC (TGI) (M14) was 24 µM and the GI50 (T-47D) was 0.155 nM.
